Earlier results in patent US7173016B2, “Composition and method for treating graft-versus-host disease” (Mayne Pharma (USA) Inc., priority 2001, dated 2007).

Conditions: acid-catalyzed glycosidic cleavage

In the case of `OC[C@H]1O[C@@H](n2cnc3c2NC=NC[C@H]3O)C[C@@H]1O` [pentostatin, 2′-deoxycoformycin], the acid stability is listed as “highly acid-labile”.
